Measured values published in publication PMC3859497, “Expression and Biological Activity of the Cystine Knot Bioinsecticide PA1b (Pea Albumin 1 Subunit b)” (PLoS ONE, 2013).
No end group written: not given here.

How the values were obtained:
[1] = system: Sitophilus oryzae sensitive weevil strain WAA42; experiment: Toxicity assay on weevils, sensitive strain WAA42 (survival analysis on food pellets); format: in vivo; settings: adult S. oryzae, sensitive strain WAA42, fed food pellets (wheat flour and water) incorporating peptide at 400 µg.g−1, days +/− SEM, LT50 calculated with SIMFIT
Method: (§1) Rice weevils (Sitophilus oryzae, Coleoptera) were reared on wheat seeds at 27.5°C and 70% RH. Tests and survival analysis were performed on adults feeding on food pellets (composed of wheat flour and water) incorporating PA1b (extracted from pea seeds for control tests or produced in tobacco) at 400 µg.g^−1, as described in detail in [10]. LT50 values were calculated using the SIMFIT software (http://www.simfit.man.ac.uk). The PA1b resistant strain, ISOR3, was reared in an identical way except that the weevils were fed on pea seeds rather than on wheat seeds.

[2] = system: Sitophilus oryzae PA1b resistant strain ISOR3; experiment: Toxicity assay on weevils, PA1b resistant strain ISOR3; format: in vivo; settings: adult S. oryzae, PA1b resistant strain ISOR3, food pellets incorporating peptide at 400 µg.g−1
Method: as §1

Sf9 insect cells = experiment: Viability assay on Sf9 insect cells; format: cell-based, Spodoptera frugiperda; settings: Sf9 cell viability assay, nM (SEM), HPLC purified tobacco-expressed isoforms
Method: Spodoptera frugiperda Sf9 cells were grown and used for viability assays, according to [23].

| Substance | TL50 WAA42 [1] | TL50 ISOR3 (mortality on resistant strain) [2] | CL50 Sf9 (Sf9 insect cells) | TL50 WAA42 ([1]; listed as 4) | TL50 WAA42 ([1]; listed as isoform 4) [days] | TL50 WAA42 ([1]; listed as 3) | TL50 WAA42 ([1]; listed as isoform 3) | CL50 Sf9 (Sf9 insect cells; listed as 3) [nM] | CL50 Sf9 (Sf9 insect cells; listed as isoform 3) |
| --- | --- | --- | --- | --- | --- | --- | --- | --- | --- |
| ASCNGVCSPFEMPPCGTSACRCIPVGLFIGYCRNPSG (also: bicyclic or more (positions not given here)) [Isoform 2.2, pea PA1b isoform 2 (GenBank AJ574794), non-oxidized Met form, expressed in tobacco] | 8.9+−0.6 days | no mortality | 53 (16) nM | – | – | – | – | – | – |
| ASCNGVCSPFEMoxPPCGSSACRCIPVGLLIGYCRNPSG (bicyclic or more) [Isoform 1, pea PA1b isoform (GenBank AJ574795) expressed in N. benthamiana with the PA1-cassette] | 9.2+−0.9 days | no mortality | 82 (24) nM | – | – | – | – | – | – |
| ASCNGVCSPFEMoxPPCGSSACRCIPVGLVVGYCRHPSG (bicyclic or more) [Isoform 4, pea PA1b isoform (GenBank M13790 and AJ276882) expressed in tobacco] | – | no mortality | 269 ± 50 nM | 12.9+−1.1 days | 12.9 ± 1.1 | – | – | – | – |
| ASCNGVCSPFEMoxPPCGTSACRCIPVGLFIGYCRNPSG (bicyclic or more) [Isoform 2.1, pea PA1b isoform 2 (GenBank AJ574794), oxidized Met form, expressed in tobacco] | 9.5+−0.7 days | no mortality | 82 (36) nM | – | – | – | – | – | – |
| ASCNGVCSPFEMoxPPCGTSACRCIPVGLVIGYCRNPSG (bicyclic or more) [Isoform 6, pea PA1b isoform (GenBank AJ574793) expressed in tobacco] | 8.9+−0.7 days | no mortality | 96 (22) nM | – | – | – | – | – | – |
| ASCNGVCSPFEMoxPPCGTSACRCIPVGLVVGYCRNPSG (bicyclic or more) [Isoform 5, pea PA1b isoform (GenBank M13709) expressed in tobacco] | 9.35+−0.7 days | no mortality | 99 (31) nM | – | – | – | – | – | – |
| ISCNGVCSPFDIPPCGSPLCRCIPAGLVIGNCRNPY G (bicyclic or more) [Isoform 3, pea PA1b isoform (GenBank AJ574796) expressed in tobacco] | – | no mortality | – | – | – | no mortality | completely inactive | >1500 | completely inactive |
